# Measurements published in patent US12187662B2, “FOXM1 inhibitor compositions and methods of using the same” (The Board of Trustees of the University of Illinois, priority 2018, dated 2025).
# “Also recorded” adds a separate entry of the source. Read-outs that look alike come from different tables or passages of the source.
# Key:
# DT22 cells = assay: Cell proliferation assay (WST-1), DT22; format: cell-based, human
# Description: (§1) All cells were tested for mycoplasma using Real-Time PCR Mycoplasma Detection Kit (Akron Biotech, Boca Raton, FL).
# (§2) All assays were performed in triplicate.
# [1] = Pharmacokinetic studies in mice after single s.c. or oral dose; settings: mice; for Blood levels after oral administration: 40 mg/kg oral
# Description: For s.c. injection, each compound was dissolved in DMSO and then mixed with corn oil for a total injection volume of 100 μL (10% DSMO+90% corn oil) per mouse. For oral gavage, compounds were administered in a 200 μL formulation of 9/0.5/0.5/90 parts of PEG400/Tween80/Povidone/0.5% Carboxymethylcellulose. […] Compounds were quantified by LC-MS/MS at the University of Illinois Metabolomics Core Facility. The data were fitted to a non-compartment model.
# MCF7 cells = assay: Cell proliferation assay (WST-1), MCF7; format: cell-based, human; settings: read-out: IC50 MCF7
# Description: as §1, §2
# MDA-MB-231 cells = assay: Cell proliferation assay (WST-1), MDA-MB-231; format: cell-based, human; settings: inhibition of cell proliferation; read-out: IC50 MDA-MB-231
# Description: as §1, §2
# breast cancer cell lines = assay: Proliferation of breast cancer cell lines (panel, line not specified); format: cell-based, human; settings: for IC50: read-out: IC50 for inhibition of proliferation of breast cancer cell lines
# Description: as §1, §2
# FOXM1 and ERα = assay: Cellular level of FOXM1 and ERα (Western blot, mRNA); format: cell-based, human; settings: Western blot over time
# Description: In-cell Western and Western blot assays Cells were cultured in 96-well plates at 3000 cells/well, and treated with compounds for the times indicated. Cells were washed twice in PBS, fixed with 4% formaldehyde (Fisher Scientific) solution in PBS, permeabilized in 0.1% Triton X-100 in PBS, blocked with Odyssey Blocking Buffer (LI-COR), and incubated with FOXM1 antibody (GeneTex, 102170) rabbit HC-20 ERa antibody (Santa Cruz, Cat #SC-543) or mouse F10 ERa antibody (Santa Cruz, Cat #SC8002) at 4 C overnight. Both IRDye 800 CW goat anti-rabbit secondary antibody (LI-COR, Cat #926-32211) and Cell Tag 700 (LI-COR, Cat #926-41090) were diluted (1:600) for incubation with cells. Plates were washed and staining signals were quantified and normalized with Cell Tag signals (to control for any differences in cell number per well) using LI-COR Odyssey infrared imaging system. Fold changes in protein levels were calculated relative to the vehicle treated WT samples. Results are the average±SD from at least three independent experiments, each performed with 4 wells per treatment condition. […]
# RNA isolation and real-time PCR Total RNA was isolated using TRIzol (Invitrogen) and reverse transcribed using […] reverse transcriptase (New England BioLabs). […] Relative mRNA levels of genes were normalized to the housekeeping gene 36B4, and fold change calculated relative to the vehicle treated samples. […]
# FOXM1 protein = biological target: T1, FOXM1 protein (Homo sapiens, UniProt Q08050); assay: Competitive binding of inhibitors to FOXM1 by tr-FRET (Fl-NB-72 probe); settings: tr-FRET competition with Fl-NB-72; Ki calculated from IC50 (Cheng-Prusoff)
# T1 construct: a terbium donor was attached to purified full length FOXM1 through a streptavidin-biotin linker
# T1 sequence (Q08050 1-763): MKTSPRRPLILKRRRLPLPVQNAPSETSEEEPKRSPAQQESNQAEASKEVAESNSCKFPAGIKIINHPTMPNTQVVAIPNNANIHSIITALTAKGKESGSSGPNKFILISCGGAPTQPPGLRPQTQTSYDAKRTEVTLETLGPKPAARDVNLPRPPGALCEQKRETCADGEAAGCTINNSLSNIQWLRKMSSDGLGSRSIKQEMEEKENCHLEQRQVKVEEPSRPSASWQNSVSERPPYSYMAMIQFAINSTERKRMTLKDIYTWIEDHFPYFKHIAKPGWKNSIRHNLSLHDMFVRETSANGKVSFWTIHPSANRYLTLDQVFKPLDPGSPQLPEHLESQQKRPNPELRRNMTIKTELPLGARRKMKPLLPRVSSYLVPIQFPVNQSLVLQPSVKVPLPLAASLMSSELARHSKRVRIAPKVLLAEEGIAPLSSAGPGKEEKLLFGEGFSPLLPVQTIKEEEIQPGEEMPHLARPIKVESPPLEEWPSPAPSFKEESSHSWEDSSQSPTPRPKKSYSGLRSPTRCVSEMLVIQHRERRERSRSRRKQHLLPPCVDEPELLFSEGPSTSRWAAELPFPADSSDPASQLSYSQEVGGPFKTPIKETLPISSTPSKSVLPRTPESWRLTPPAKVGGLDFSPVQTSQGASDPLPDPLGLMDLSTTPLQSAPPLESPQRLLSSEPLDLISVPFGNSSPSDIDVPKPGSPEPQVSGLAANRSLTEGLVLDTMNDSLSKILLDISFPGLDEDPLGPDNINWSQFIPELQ
# Description: Competitive binding assays of FOXM1 inhibitor binding to FOXM1 by tr-FRET were conducted. All tr-FRET experiments used FRET buffer (20 mM Tris, pH 7.5, 50 mM NaCl, 0.01% NP-40 detergent, 10% glycerol) with 0.3 mg/ml ovalbumin and 0.1 mM butylated hydroxy-anisole added fresh daily. Solutions of the protein, fluorescent probe and inhibitor dilutions were prepared at 3× the final concentrations, the final dilution taking place as they were mixed together on the microtiter plate.
# Final concentrations were 10^-5M to 10^-9M, with the last point being buffer only, no inhibitor. Fluorescein-NB-72 (Fl-NB-72) was prepared at 1 mM in DMF and stored at −20° C. It was diluted into plain FRET buffer to give 100 nM in the assay.
# Incubations were done in duplicate on black Molecular Devices 96-well microtiter plates. […] To this were added 5 μL of the inhibitor dilutions, mixed and incubated, in the dark, at room temperature, for 1 h. […] Diffusion-enhanced FRET was determined by a parallel incubation without biotin-FOXM1 and subtracted as a background signal. Graphs were prepared using Graph Pad/Prism 4.
# [2] = after IV administration; cited from earlier work
# MCF7 xenograft tumors = assay: MCF7 breast cancer xenografts in ovariectomized NSG mice; format: in vivo, mouse; settings: 100 mg/kg s.c. daily
# Description: For examination of the growth of ER-positive MCF7 xenograft tumors, female NSG mice were ovariectomized, and 2 weeks after ovariectomy, animals were supplemented with 0.36 mg E2-pellets (60-day release, Innovative Research of America) to support ER+ tumor growth. Cell suspensions of wild type MCF7 cells (1×10^6 cells/mouse) were injected subcutaneously (sc) in the right axial mammary gland and when tumors reached 100-150 mm^3 in size, mice were randomized and received compound or control vehicle (corn oil) by s.c. injection or oral gavage (PEG400/PVP/Tween/CMC as Veh) at the frequency indicated and tumor volume (length><width 2/2) was monitored over time.
# [3] = test system: DT22 triple negative human breast tumor xenografts; assay: DT22 triple negative breast tumor xenografts in NSG mice; format: in vivo, mouse
# Description: In vivo breast cancer xenograft studies For examination of the growth of triple-negative DT22 breast tumors, intact female NOD/SCID-gamma (NSG) mice were used. DT-22 cells (1×10^6 cells/mouse) were injected s.c. into the right axial mammary gland. Mice received s.c. injection or oral gavage daily or every second or third day, as indicated, with vehicle or FOXM1 inhibitor compound, and tumor growth was monitored over time.
# MCF10A cells = assay: Cell proliferation, MCF10A (low FOXM1); format: cell-based, human; settings: 6 days
# Description: (§3) Cell lines and cell culture methods MCF7 and other breast cancer cell lines were obtained from the ATCC and were maintained and cultured as described (Bergamaschi et al., Breast Cancer Res., 2014, 16:436; Madak-Erdogan et al., Mol. Syst. Biol., 2013, 9:676; Zhao et al., Cancer Res., 2017, 77:5602-13). DT22 cells were derived from a human triple negative invasive ductal breast carcinoma and were grown in culture as described (Drews-Elger et al., Breast cancer research and treatment, 2014, 144:503-17). All cells were tested for mycoplasma using Real-Time PCR Mycoplasma Detection Kit (Akron Biotech, Boca Raton, FL).
# (§4) Cell proliferation assay WST-1 assay (Roche, Basel, Switzerland) was used to quantify cell viability as described (Gong et al., Mol. Cell Endocrinol., 2016, 437:190-200). Absorbance was measured at 450 nm using a VICTOR X5 PerkinElmer 2030 Multilabel Plate Reader. All assays were performed in triplicate.
# [4] = test system: FOXM1 target genes in MCF7 cells; assay: FOXM1 target gene expression by qRT-PCR, MCF7; format: cell-based, human; settings: MCF7, 24 h, at IC50 concentration
# Description: (§5) RNA was extracted from cells and expression of different genes was monitored by qRT-PCR. Assays were run in triplicate. Values are mean±SEM. *, p<0.05; **, p<0.01; ***, p<0.001. RNA isolation and real-time PCR Total RNA was isolated using TRIzol (Invitrogen) and reverse transcribed using […] reverse transcriptase (New England BioLabs). Real-time PCR was performed using SYBRgreen PCR Master Mix (Roche) as described (Bergamaschi et al., Breast Cancer Res., 2014, 16:436). Relative mRNA levels of genes were normalized to the housekeeping gene 36B4, and fold change calculated relative to the vehicle treated samples. Results are the average±SD from at least two independent experiments carried out in triplicate. Primer sequences for the genes studied were obtained from the Harvard Primer Bank. Sequences are available on their website.
# [5] = test system: MDA-MB-453 breast cancer cells; assay: Cell proliferation, MDA-MB-453; format: cell-based, human; settings: inhibition of cell proliferation
# Description: as §3, §4
# [6] = test system: FOXM1 target genes in DT22 cells; assay: FOXM1 target gene expression by qRT-PCR, DT22; format: cell-based, human; settings: DT22, 24 h, at IC50 concentration
# From the text: as §5, with “Real-time PCR was performed using SYBRgreen PCR Master Mix (Roche) as described (Bergamaschi et al., Breast Cancer Res., 2014, 16:436).” left out
# [7] = inhibition of cell proliferation, read-out: IC50 DT-22
# [8] = inhibition of cell proliferation
# [9] = cell line not specified or several lines
smiles,measurement,setting,value
"Nc1c(C(=O)Nc2ccc(F)cc2)sc2nc(-c3cccs3)cc(C(F)(F)F)c12 [FDI-6, reference compound]",IC50,DT22 cells; [7],4.8 µM
same,Blood levels after s.c. administration,[1]; 20 mg/kg s.c.,very low blood levels
same,Blood levels after oral administration,[1]; 40 mg/kg,undetectable
same,Blood levels after oral administration,"[1]; listed as FDI 6, 40 mg/kg",not detectable
same,IC50,MCF7 cells; [8],3.1 µM
same,IC50,MDA-MB-231 cells,4.5 µM
same,IC50,breast cancer cell lines; [9],8 µM
same,Cellular FOXM1 and ERα proteins,FOXM1 and ERα,downregulated
same,Ki,FOXM1 protein,0.143 µM
CCN(CC)c1ccc(C(c2ccc(N(CC)CC)cc2)=c2ccc3c(c2)CCc2ccccc2[N+]=3CCCN(C)C)cc1 [Imipramine Blue],half-life t1/2,[2],0.183 h
"Clc1ccc(C(=C2C3CC4CC(C3)CC2C4)c2ccc(OCCCCCCN3CCCC3)cc2)cc1 [NB-55, 1-(6-(4-((-((Z)-((5S,7S)-Adamantan-2-ylidene)(4-chlorophenyl)methyl)phenoxy)hexyl)pyrrolidine]",IC50,DT22 cells; [7],6 µM
same,Growth of MCF7 E2-treated xenograft tumors,MCF7 xenograft tumors,reduces; also recorded: reduced the growth
same,Tumor suppression at lower doses,[3]; 20 or 40 mg/kg (data not shown),only marginally effective
same,Growth of DT22 tumor xenografts,"[3]; daily s.c. or oral, 100 mg/kg",effective tumor suppression; also recorded: very effectively suppressed
same,PK p.o. AUC0-48,[1]; 40 mg/kg p.o.,35.7 µM·h
same,PK p.o. t1/2,[1]; 40 mg/kg p.o.,16.6 h
same,PK s.c. AUC0-48,[1]; 40 mg/kg s.c.,34.7 µM·h
same,PK s.c. t1/2,[1]; 40 mg/kg s.c.,26.7 h
same,IC50,MCF7 cells; [8],3 µM
same,IC50,breast cancer cell lines; [9],2 to 10 µM
same,Reduced potency in suppression of cell proliferation (versus salts),breast cancer cell lines; cells in culture,5 fold
same,Concentration for 50% suppression of proliferation in MCF10A versus cells with high and intermediate FOXM1,MCF10A cells,five times higher
same,Expression of ATF3 (gene suppressed by FOXM1),[4],increased
same,"Expression of FOXM1 stimulated target genes (FOXM1C, AURKB, CCNB1, PLK1)",[4],significantly reduced
same,IC50,[5],3 to 5 µM
same,Expression of ATF3 (gene suppressed by FOXM1),[6],increased
same,"Expression of FOXM1 stimulated target genes (FOXM1C, AURKB, CCNB1, PLK1)",[6],significantly reduced
same,Ki,FOXM1 protein,0.23 µM
"C=C(NC(=O)C(=C)NC(=O)c1csc(C2=N[C@@H]3c4csc(n4)[C@H]4NC(=O)c5csc(n5)[C@H]([C@](C)(O)[C@@H](C)O)NC(=O)[C@H]5CSC(=N5)/C(=C/C)NC(=O)[C@H]([C@@H](C)O)NC(=O)c5csc(n5)[C@]3(CC2)NC(=O)[C@H](C)NC(=O)C(=C)NC(=O)[C@H](C)NC(=O)[C@H]([C@@H](C)CC)N[C@@H]2C=Cc3c([C@H](C)O)cc(nc3[C@H]2O)C(=O)O[C@@H]4C)n1)C(N)=O [thiostrepton, reference compound]",IC50,"DT22 cells; Homo sapiens, DT-22, inhibition of cell proliferation",3.6 µM
same,IC50,"MCF7 cells; Homo sapiens, MCF7, inhibition of cell proliferation",1.4 µM
same,IC50,breast cancer cell lines; Homo sapiens,2 µM
same,Cellular FOXM1 and ERα proteins,FOXM1 and ERα,downregulated
